Values quoted from earlier work as cited in patent US12551473B2, “Compositions and methods for increasing athletic performance” (VDF Futureceuticals, Inc., priority 2015, dated 2026).

Tests used:
systolic blood pressure = conditions: 5.5 mmol/day, acute (1 day) and chronic (6 day), during cycling in healthy young men
skin blood flow = conditions: during cycling exercise at 55% VO2max

Row | SMILES | reduced systolic blood pressure (mean) (systolic blood pressure) [mmHg] | skin blood flow (skin blood flow)
1 | O=[N+]([O-])O [nitrate] | 6 | –
2 | CN(C)C(=O)Oc1ccc[n+](C)c1 [pyridostigmine] | – | reduces
